The values that follow come from US11964984B2, “TXNIP-TRX complex inhibitors and methods of using the same” (CITY OF HOPE, priority 2020, dated 2024).

The test system of the assay is TXNIP mRNA. Nature of the assay: TXNIP expression in murine blood after oral dosing (RT-PCR). It counts as in vivo, C57BL/6 mice. As to conditions: 90 mg/kg oral gavage daily for five days, 96 hours after last dose. Here is the method:
FIG. 16. Compounds C30 and C38 reduce TXNIP expression in murine blood. Twelve male C57BL/6 mice were divided into three groups (vehicle, C30 and C38). They received 90 mg/kg of the indicated compounds via oral gavage daily for five days. Animals were humanely euthanized 96 hours after administration of the last drug dose. Blood samples were collected for total RNA extraction. RT-PCR was performed in triplicate and data shown are the mean±SEM. Statistical analysis was performed using one-way ANOVA: *p<0.001.
The effects of compounds C30 and C38 at single high dose of 90 mg/kg. Twelve male mice were divided into three groups: 1) Control group (4 mice), 2) compound C30 (4 mice) and 3) compound C38 (4 mice). By oral gavage, animals were given 90 mg/kg of agent daily for 5 consecutive days (vehicle: 30% Solutol in saline). Mice were weighed every day during the treatment period. They were humanely euthanized 96 hours after the last dose. Tissues including the pancreas, liver and kidneys were collected (snap frozen in liquid nitrogen) for RNA extraction. […] Those given compound C30 lost ˜5% of body weight (FIG. 15).
Expression of TXNIP in vivo in treated mice.

For `COc1cc(N2CC[C@@H](c3ccc4ccccc4c3)[C@H](O)C2)nc(N)n1` [Compound C30], the “RNA expression level of TXNIP in blood” value is “reduced”.

On to `c1ccc(CCNc2ncnc3c2oc2ccccc23)cc1` [Compound C38], for which the “RNA expression level of TXNIP in blood” value is “reduced”.
